Source: patent US7541381B2, “Non-covalent inhibitors of AmpC β-lactamase” (Northwestern University, priority 2002, dated 2009)
Converted amounts (≈) assume the structure as drawn. “Also recorded” adds a separate entry of the source.

Tests used:
AmpC β-lactamase = biological target: T1, AmpC β-lactamase (Escherichia coli, UniProt P00811); test: biochemical; type: biochemical; details: for Ki: 50 mM TRIS pH 7.0, nitrocefin substrate, progress curve analysis; for change of AmpC inhibition/binding relative to compound 1: analogs of 1
T1 construct: made in house
Procedure: Enzymology. AmpC from Escherichia coli was expressed and purified to homogeneity as described in the literature. […] All were used without further purification. Kinetic measurements with AmpC were performed in 50 mM TRIS buffer, pH 7.0, using nitrocefin as a substrate. […] Reactions were initiated by the addition of 0.875 nM enzyme and monitored in methacrylate cuvettes. […] Ki values for the compounds were obtained by comparison of progress curves in the presence and absence of inhibitor.

[1] = tested on: JM109 E. coli expressing AmpC; test: Antimicrobial susceptibility testing (MIC), AmpC-expressing strain; type: cell-based
Procedure: (§1) Antimicrobial experiments. Susceptibility testing was performed and interpreted following the guidelines of the National Committee for Clinical Laboratory Standards. To test the inhibitory activity of 1, the compound was dissolved in 50% DMSO and dilutions were performed using Luria Broth growth medium.

[2] = tested on: JM109 that does not express AmpC; test: Antimicrobial susceptibility testing (MIC), strain without AmpC; type: cell-based, E. coli; details: Escherichia coli, read-out: MIC of ampicillin in JM109 that does not express AmpC
Procedure: as §1

α-chymotrypsin = biological target: T2, α-chymotrypsin (Bos taurus, UniProt P00766); test: biochemical; design: species or system bovine; details: 200 μM substrate, 50 mM TRIS pH 7.0, 25° C.
T2 construct: purchased Sigma (St. Louis, Mo.); host or cells: bovine pancreas
Procedure: (§2) The substrates for α-chymotrypsin (succinyl-ala-ala-pro-phe-p-nitroanilide) and β-trypsin (N-benzoyl-L-arginine ethyl ester, BAEE) were also purchased from Sigma. The elastase substrate used (elastase substrate 1, MeOSuc-Ala-Ala-Pro-Val-pNA) was purchased from Calbiochem (San Diego, Calif.). Substrates were diluted from 10 mM DMSO stock solutions, and all reactions were performed in 50 mM TRIS buffer, pH 7.0, 25° C. For α-chymotrypsin, 200 μM of substrate was used; the reactions were initiated by addition of 10 μL of a 0.1 mg/ml enzyme stock solution and monitored at 410 nm. For β-trypsin, 200 μM of BAEE was used, the reactions were initiated by the addition of 5 μL of a 0.2 mg/ml enzyme stock solution, and monitored at 260 nm. For elastase, 640 μM of elastase substrate was used, the reactions were initiated by the addition of 30 μL of a 0.2 mg/mL enzyme stock solution, and monitored at 385 nm. Initial rate fits to the absorbance data for the first 150 seconds of each reaction were used to determine reaction velocities.

β-trypsin = biological target: T3, β-trypsin (Bos taurus, UniProt P00760); test: biochemical; type: biochemical, bovine
T3 construct: β-trypsin (bovine pancreatic); purchased Sigma (St. Louis, Mo.); host or cells: bovine pancreas
Procedure: as §2

elastase = biological target: T4, elastase (Sus scrofa, UniProt P00772); test: elastase selectivity counter-screen; type: biochemical, porcine
T4 construct: purchased Sigma (St. Louis, Mo.); host or cells: porcine pancreas
Procedure: as §2

related serine amidases = test: Counter-screens against related serine amidases; type: biochemical
Procedure: as §2

T1 sequence (P00811 20-377): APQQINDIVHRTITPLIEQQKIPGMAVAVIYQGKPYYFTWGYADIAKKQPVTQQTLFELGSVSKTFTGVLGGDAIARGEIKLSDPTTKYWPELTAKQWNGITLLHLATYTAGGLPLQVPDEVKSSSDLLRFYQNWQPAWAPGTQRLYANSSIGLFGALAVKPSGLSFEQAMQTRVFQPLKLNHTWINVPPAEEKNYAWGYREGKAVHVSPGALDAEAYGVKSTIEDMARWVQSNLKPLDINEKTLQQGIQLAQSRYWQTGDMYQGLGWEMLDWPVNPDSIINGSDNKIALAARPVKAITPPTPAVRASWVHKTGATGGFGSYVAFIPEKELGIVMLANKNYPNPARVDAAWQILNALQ
T4 sequence (P00772 27-266): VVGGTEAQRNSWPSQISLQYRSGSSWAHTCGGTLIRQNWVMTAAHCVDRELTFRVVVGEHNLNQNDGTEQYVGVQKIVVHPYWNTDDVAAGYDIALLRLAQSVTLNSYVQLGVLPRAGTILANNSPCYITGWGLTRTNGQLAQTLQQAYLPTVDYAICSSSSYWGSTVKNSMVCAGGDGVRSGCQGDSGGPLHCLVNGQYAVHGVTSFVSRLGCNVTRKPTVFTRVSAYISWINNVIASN
T3 sequence (P00760 24-246): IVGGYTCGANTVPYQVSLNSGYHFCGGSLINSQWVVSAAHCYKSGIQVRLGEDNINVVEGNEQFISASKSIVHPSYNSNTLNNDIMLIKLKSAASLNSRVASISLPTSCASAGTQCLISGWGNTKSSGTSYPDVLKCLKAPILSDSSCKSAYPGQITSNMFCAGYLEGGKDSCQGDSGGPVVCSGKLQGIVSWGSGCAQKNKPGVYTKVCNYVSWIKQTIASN

Row | Compound | Ki (AmpC β-lactamase) | change of AmpC inhibition/binding relative to compound 1 (AmpC β-lactamase) | further results
1 | 3-([4-[3-chloro-5-(trifluoromethyl)pyridin-2-yl]piperazino]sulfonyl)thiophene-2-carboxylate [Compound 6] | > 100 µM | hindered binding | 
2 | CC1(C)S[C@@H]2[C@H](NC(=O)[C@H](N)c3ccccc3)C(=O)N2[C@H]1C(=O)O [Ampicillin, ampicillin, reference compound] |  |  | MIC ([1]; Escherichia coli, read-out: MIC JM109/AmpC): 512 µg/mL (≈ 1470 µM); MIC [2]: 4 µg/mL
3 | O=C(O)c1sccc1S(=O)(=O)Nc1ccc(Cl)cc1 [Compound 1, 3-[(4-chloroanilino)sulfonyl]thiophene-2-carboxylic acid] | 23 µM |  | mode of inhibition of AmpC (AmpC β-lactamase): competitive, non-covalent inhibitor; also recorded: competitive, reversible inhibitor; IC50 (α-chymotrypsin): > 1200 µM; IC50 (β-trypsin; 200 μM BAEE, 50 mM TRIS pH 7.0, 25° C.): > 4000 µM; inhibition of trypsin (β-trypsin; at concentrations up to 4 mM): no inhibition; IC50 (elastase; 640 μM elastase substrate, 50 mM TRIS pH 7.0, 25° C.): > 4000 µM; inhibition of elastase (elastase; at concentrations up to 4 mM): no inhibition; antibiotic activity of compound alone ([1]; at the concentration used in the ampicillin combination): no measurable antibiotic activity; increase in efficacy of ampicillin ([1]; bacterial cell culture, resistant strain): four-fold; minimum inhibitory concentration (MIC) of ampicillin in the presence of the compound ([1]; resistant strain overexpressing β-lactamase): 128 µg/mL; inhibition of related serine amidases in counter-screens (related serine amidases): did not inhibit
4 | O=S(=O)(O)CCCSc1nc2ccccc2s1 [Compound 2, 3-(2-benzothiazolylthio)-1-propanesulfonic acid] | 318 µM |  | 
5 | O=C(O)CCSc1nc2ccccc2s1 [Compound 3, 3-(2-benzothiazolylthio)propionic acid] | 646 µM |  | 
6 | Cc1ccc(S(=O)(=O)Nc2csc(C)c2C(=O)O)cc1 [Compound 4, 2-methyl-4-[[(4-methylphenyl)sulfonyl]amino]thiophene-3-carboxylic acid] | 60 µM | diminished inhibition three-fold; also recorded: reduced binding by three-fold | 
7 | COC(=O)c1sccc1S(=O)(=O)Nc1ccc(Cl)cc1 [Compound 5, methyl 3-[(4-chloroanilino)sulfonyl]thiophene-2-carboxylate] | > 100 µM | compromised inhibition; also recorded: binding was somewhat problematic | 
8 | O=C(O)c1sccc1S(=O)(=O)Nc1ccccc1N1CCCCC1 [Compound 7, 3-[(2-piperidinoanilino)sulfonyl]thiophene-2-carboxylic acid] | 14 µM | slight improvement in affinity | 
9 | Cc1oc(C)c(S(=O)(=O)Nc2cccs2)c1C(=O)O [Compound 8, 2,5-dimethyl-4-(2-thienylaminosulfonyl)furan-3-carboxylic acid] | 64 µM |  | 
10 | COc1ccc(NS(=O)(=O)c2ccccc2[N+](=O)[O-])cc1 [Compound 9, N-(4-methoxyphenyl)-2-nitro-benzenesulfonamide] | > 100 µM | compromised inhibition; also recorded: binding was somewhat problematic | 
11 | O=C(Cc1cccs1)N[C@@H]1C(=O)N2C(C(=O)O)=C(/C=C/c3ccc([N+](=O)[O-])cc3[N+](=O)[O-])CS[C@H]12 [nitrocefin, reference compound] |  |  | Km (AmpC β-lactamase; read-out: Km of nitrocefin for AmpC, 50 mM TRIS buffer, pH 7.0): 127 µM
